# Measured values published in PubChem BioAssay AID264 (DTP/NCI, 2004).
# Records with an inconclusive call do not appear.
# Tested on: nude mice, LX-1 lung xenograft intrarenal, tumor weight T/C
# Assay: NCI In Vivo Anticancer Drug Screen. Data for tumor model Human Lung LX-1 Xenograft (intrarenal inoculation) in NU/NU Swiss (nude) mice
# Settings: endpoint: mean tumor weight change, higher = larger tumour
# How it was run: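 In vivo, transplantable tumor; compound vs vehicle arms; tumor size measured; value = T/C.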
# [1] = dose: 100.0 mg/kg/injection, schedule: Q04DX003 (sc), vehicle: saline
# [2] = dose: 200.0 mg/kg/injection, schedule: Q04DX003 (sc), vehicle: saline
# [3] = dose: 200.0 mg/kg/injection, schedule: Q04DX003 (sc), vehicle: saline with Tween-80
# [4] = dose: 800.0 mg/kg/injection, schedule: Q04DX003 (sc), vehicle: saline with Tween-80
# [5] = dose: 75.0 mg/kg/injection, schedule: Q04DX003 (sc), vehicle: Klucel (hydroxypropylcellulose) (HPC)
# [6] = dose: 150.0 mg/kg/injection, schedule: Q04DX003 (sc), vehicle: Klucel (hydroxypropylcellulose) (HPC)
# [7] = dose: 300.0 mg/kg/injection, schedule: Q04DX003 (sc), vehicle: Klucel (hydroxypropylcellulose) (HPC)
compound,measurement,setting,value
CCC1(O)CC2CN(CCc3c([nH]c4ccccc34)C(C(=O)OC)(c3cc4c(cc3OC)N(C)C3C(O)(C(N)=O)C(O)C5(CC)C=CCN6CCC43C65)C2)C1 (stereo not given) (tested in a mixture with another compound),T/C,"dose: 1.5 mg/kg/injection, schedule: Q04DX003 (sc), vehicle: water",28 % of control
CCC(C(=O)O)C(=O)O.[NH2-].[NH2-].[Pt+2],T/C,"dose: 37.5 mg/kg/injection, schedule: Q04DX003 (sc), vehicle: saline",110 % of control
same,T/C,"dose: 75.0 mg/kg/injection, schedule: Q04DX003 (sc), vehicle: suspension in saline",54 % of control
same,T/C,[1],92 % of control
same,T/C,"dose: 100.0 mg/kg/injection, schedule: Q04DX003 (sc), vehicle: suspension in saline",46 % of control
same,T/C,"dose: 150.0 mg/kg/injection, schedule: Q04DX003 (sc), vehicle: suspension in saline",40 % of control
same,T/C,[2],76 % of control
same,T/C,"dose: 200.0 mg/kg/injection, schedule: Q04DX003 (sc), vehicle: suspension in saline",27 % of control
NC(=O)Oc1cccc(OC(N)=O)c1,T/C,"dose: 300.0 mg/kg/injection, schedule: Q04DX003 (sc), vehicle: water",105 % of control
same,T/C,"dose: 600.0 mg/kg/injection, schedule: Q04DX003 (sc), vehicle: water",89 % of control
same,T/C,"dose: 1200.0 mg/kg/injection, schedule: Q04DX003 (sc), vehicle: water",67 % of control
same,T/C,"dose: 2400.0 mg/kg/injection, schedule: Q04DX003 (sc), vehicle: water",54 % of control
CC1(c2ccc(Cl)cc2)OC(=O)C(=Cc2ccc([N+](=O)[O-])s2)C(=O)O1 (stereo not given),T/C,[3],111 % of control
same,T/C,[4],80 % of control
same,T/C,"dose: 1600.0 mg/kg/injection, schedule: Q04DX003 (sc), vehicle: saline with Tween-80",118 % of control
CC(C)NC(=O)N(CCCCBr)N=O,T/C,[5],95 % of control
same,T/C,[6],52 % of control
same,T/C,[7],44 % of control
C=C(C)[C@H]1CN[C@H](C(=O)O)[C@H]1CC(=O)O,T/C,"dose: 10.0 mg/kg/injection, schedule: Q04DX003 (sc), vehicle: saline",164 % of control
same,T/C,"dose: 20.0 mg/kg/injection, schedule: Q04DX003 (sc), vehicle: saline",97 % of control
C[C@@]1(CO)[C@H](O)CC[C@@]2(C)[C@H]1CC[C@H]1C[C@@H]3C[C@@]12CC[C@@]3(O)COC(=O)CN,T/C,"dose: 133.0 mg/kg/injection, schedule: Q01DX010 (sc), vehicle: saline + alcohol",101 % of control
same,T/C,"dose: 200.0 mg/kg/injection, schedule: Q01DX010 (sc), vehicle: saline + alcohol",106 % of control
same,T/C,"dose: 62.5 micrograms/kg/injection, schedule: Q01DX010 (sc), vehicle: saline + alcohol",102 % of control
same,T/C,"dose: 500.0 micrograms/kg/injection, schedule: Q01DX010 (sc), vehicle: saline + alcohol",115 % of control
c1csc(C[N+]23CN4CN(CN(C4)C2)C3)c1,T/C,[1],112 % of control
same,T/C,[2],100 % of control
same,T/C,"dose: 400.0 mg/kg/injection, schedule: Q04DX003 (sc), vehicle: saline",92 % of control
CCc1ccc(C2=C(O)C(=O)C(c3ccc(CC)cc3)=C(O)C2=O)cc1,T/C,"dose: 100.0 mg/kg/injection, schedule: Q04DX003 (sc), vehicle: saline with Tween-80",83 % of control
same,T/C,[3],100 % of control
same,T/C,"dose: 400.0 mg/kg/injection, schedule: Q04DX003 (sc), vehicle: saline with Tween-80",64 % of control
same,T/C,[4],56 % of control
C=C1C(=O)C2=CC1CCC(=O)C1(C)CCC(OC(C)=O)C(C)(C)C1CC2O (stereo not given),T/C,"dose: 60.0 mg/kg/injection, schedule: Q04DX003 (sc), vehicle: Klucel (hydroxypropylcellulose) (HPC)",121 % of control
same,T/C,"dose: 120.0 mg/kg/injection, schedule: Q04DX003 (sc), vehicle: Klucel (hydroxypropylcellulose) (HPC)",57 % of control
O=C(CC(=O)C(F)(F)F)c1csc2ccccc12,T/C,[5],81 % of control
same,T/C,[6],70 % of control
same,T/C,[7],93 % of control
same,T/C,"dose: 600.0 mg/kg/injection, schedule: Q04DX003 (sc), vehicle: Klucel (hydroxypropylcellulose) (HPC)",87 % of control
CS(=O)(=O)OCCN(CCOS(C)(=O)=O)c1ccc(C=Nc2ccc(-c3csc(COc4ccccc4)n3)cc2)cc1,T/C,"dose: 12.5 mg/kg/injection, schedule: Q01DX010 (sc), vehicle: Klucel (hydroxypropylcellulose) (HPC)",52 % of control
same,T/C,"dose: 25.0 mg/kg/injection, schedule: Q01DX010 (sc), vehicle: Klucel (hydroxypropylcellulose) (HPC)",70 % of control
same,T/C,"dose: 100.0 mg/kg/injection, schedule: Q01DX010 (sc), vehicle: Klucel (hydroxypropylcellulose) (HPC)",106 % of control
